Data taken from patent US10799474B2, “Method of treating leukemia utilizing somatic cell reprogramming” (priority 2016, dated 2020).

System: normal hematopoietic stem cells/progenitor cells
Settings: mouse, in vivo
Protocol: 7. Reprogramming factors have less effect on normal hematopoietic stem cells/progenitor cells: bone marrow cells and leukemic cells of OSKM mice were co-transplanted into lethally irradiated mice. After leukemia developed in the mice, Dox was added into the drinking water of the mice in experimental group for 7 days. […] It can be seen from FIG. 5A that the ratios of normal hematopoietic stem cells and progenitor cells in the mouse bone marrows were not affected after Dox treatment. […] It can be seen from FIG. 5B that the apoptosis of normal hematopoietic stem cells and progenitor cells was not affected after Dox treatment. […] It can be seen from FIGS. 5A, 5B, and 5C that the number and apoptosis of normal hematopoietic stem cells/progenitor cells were not affected and the mice in the experimental group were recovered from leukemia.

C[C@H]1c2cccc(O)c2C(=O)C2=C(O)[C@]3(O)C(=O)C(C(N)=O)=C(O)[C@@H](N(C)C)[C@@H]3[C@@H](O)[C@@H]21 [Dox, doxycycline]
apoptosis of normal hematopoietic stem cells and progenitor cells in the bone marrow: not affected | ratios of normal hematopoietic stem cells and progenitor cells in the bone marrow: not affected
